Reference: ChEMBL document CHEMBL4017484, “Nitric Oxide Donor-Based Cancer Therapy: Advances and Prospects” (J Med Chem, 2017)

What was measured:
[1] = Acute toxicity in iv dosed BALB/c nude mouse assessed as mortality after 14 days; type: organism-based; conditions: in vivo
HL-60 [2] = assay: Antiproliferative activity against human HL60 cells assessed as decrease in cell viability measured after 3 days by MTT assay; type: functional, cell-based; conditions: HL-60, 72 h
HL-60 [3] = assay: Antitumor activity against human HL60 cells xenografted in NOD-SCID mouse assessed as reduction in tumor growth at 4 umol/kg, iv measured after 15 to 20 days; type: functional; conditions: HL-60, iv, read-out: TGI
HT-29 = assay: Antitumor activity against human HT-29 cells xenografted in athymic nu/nu mouse assessed as reduction in tumor growth at 100 mg/kg administered every day for 18 days relative to vehicle-treated control; type: functional; conditions: HT-29, 432 h, read-out: TGI
[4] = substrate: CC(=O)N[C@H]1[C@@H]([C@H](O)[C@H](O)CO)O[C@@](O/N=[N+](\[O-])N2CCCC2)(C(=O)O)C[C@@H]1O; assay: Activity at Clostridium perfringens neuraminidase assessed as release of nitric oxide by UV-vis spectrophotometer

CC1(C)CC[C@]2(C(=O)O[C@H]3O[C@@H](CO)[C@H](O)[C@@H](O)[C@@H]3O)CC[C@]3(C)C(=CC[C@@H]4[C@@]5(C)CC[C@H](OC(=O)CCC(=O)OC6CCN(/[N+]([O-])=N/O[C@@H]7O[C@H](CO)[C@H](O)[C@H](O)[C@H]7O)CC6)C(C)(C)[C@@H]5CC[C@]43C)[C@@H]2C1
LD50 at 336 h [1]: 173 mg/kg

CCOC(=O)N1CCN(/[N+]([O-])=N/Oc2ccc([N+](=O)[O-])cc2[N+](=O)[O-])CC1
IC50 (HL-60 [2]): 0.2 to 0.5 µM | inhibition in vivo at 4 µmol/kg (HL-60 [3]): 50%

O=C(CCCO[N+](=O)[O-])Oc1ccccc1C(=O)Oc1ccc(-c2cc(=S)ss2)cc1
inhibition in vivo at 100 mg/kg (HT-29): 85%

B1: Sialidase (Clostridium perfringens), P10481 (protein)
chain: MCNKNNTFEKNLDISHKPEPLILFNKDNNIWNSKYFRIPNIQLLNDGTILTFSDIRYNGPDDHAYIDIASARSTDFGKTWSYNIAMKNNRIDSTYSRVMDSTTVITNTGRIILIAGSWNTNGNWAMTTSTRRSDWSVQMIYSDDNGLTWSNKIDLTKDSSKVKNQPSNTIGWLGGVGSGIVMDDGTIVMPAQISLRENNENNYYSLIIYSKDNGETWTMGNKVPNSNTSENMVIELDGALIMSTRYDYSGYRAAYISHDLGTTWEIYEPLNGKILTGKGSGCQGSFIKATTSNGHRIGLISAPKNTKGEYIRDNIAVYMIDFDDLSKGVQEICIPYPEDGNKLGGGYSCLSFKNNHLGIVYEANGNIEYQDLTPYYSLINKQ
Km [4]: 140 µM
